Assay results reported in patent US12398120B2, “Substituted hydantoinamides as ADAMTS7 antagonists” (BAYER AKTIENGESELLSCHAFT, priority 2019, dated 2025).

Target: ADAMTS4 (Homo sapiens (Human), UniProt O75173)
Experiment: Selectivity assay for ADAMTS-7 modulators: ADAMTS4 (FRET substrate)
Type: biochemical
Settings: ADAMTS4 (R&D 4307-AD) 50 nM, substrate Dabcyl-EEVKAKVQPY-Glu(Edans)-NH2 1 μM, 120 min, 32° C.
Outline: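 Human ADAMTS4 with compound in DMSO, or DMSO control; reaction started by adding FRET substrate in reaction buffer. Fluorescence increase measured at substrate-specific wavelengths. IC50 derived from % inhibition of enzyme activity versus compound concentration.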

Chain of ADAMTS4 (O75173 213-685): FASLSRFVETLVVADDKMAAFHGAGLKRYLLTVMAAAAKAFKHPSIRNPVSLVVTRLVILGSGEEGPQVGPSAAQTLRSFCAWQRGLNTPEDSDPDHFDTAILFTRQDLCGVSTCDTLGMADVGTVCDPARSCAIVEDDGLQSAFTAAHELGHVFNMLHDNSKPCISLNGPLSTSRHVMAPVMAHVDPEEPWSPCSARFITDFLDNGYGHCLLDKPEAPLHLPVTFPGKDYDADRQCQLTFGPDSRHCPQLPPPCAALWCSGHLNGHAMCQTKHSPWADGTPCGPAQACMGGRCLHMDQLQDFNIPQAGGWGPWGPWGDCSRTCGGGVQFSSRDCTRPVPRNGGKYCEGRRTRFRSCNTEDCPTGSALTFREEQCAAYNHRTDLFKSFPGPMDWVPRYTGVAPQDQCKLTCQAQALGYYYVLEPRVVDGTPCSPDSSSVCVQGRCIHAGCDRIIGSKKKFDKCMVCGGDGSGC

| Structure (SMILES) | IC50 [µM] |
| --- | --- |
| CCn1nccc1C1(CNC(=O)c2ccccc2-c2ccc(C(F)(F)F)cc2)NC(=O)NC1=O (stereo not drawn) [Example 80, Ent-N-{[4-(1-Ethyl-1H-Pyrazol-5-Yl)-2,5-Dioxoimidazolidin-4-Yl]Methyl}-4′-(Trifluoromethyl)[Biphenyl]-2-Carboxamide] | 5.73 |
| O=C1NC(=O)[C@](CNC(=O)c2cccnc2-c2ccc(C(F)(F)F)cc2)(C2CC2)N1 [Example 82, N-{[(4R)-4-Cyclopropyl-2,5-Dioxoimidazolidin-4-Yl]Methyl}-2-[4-(Trifluoromethyl)Phenyl]Pyridine-3-Carboxamide] | > 50 |
| O=C1NC(=O)[C@](CNC(=O)c2ccncc2-c2ccc(C(F)(F)F)cc2)(C2CC2)N1 [Example 83, N-{[(4R)-4-Cyclopropyl-2,5-Dioxoimidazolidin-4-Yl]Methyl}-3-[4-(Trifluoromethyl)Phenyl]Pyridine-4-Carboxamide] | 36 |
| O=C1NC(=O)[C@](CNC(=O)c2ccccc2-c2ccc(C(F)(F)F)cn2)(C2CC2)N1 [Example 84, N-{[(4R)-4-Cyclopropyl-2,5-Dioxoimidazolidin-4-Yl]Methyl}-2-[5-(Trifluoromethyl)Pyridin-2-Yl]Benzamide] | 50 |
| Cc1nsnc1C1(CNC(=O)c2ccccc2-c2ccc(C(F)(F)F)cc2)NC(=O)NC1=O (stereo not drawn) [Example 85, Ent-N-{[4-(4-Methyl-1,2,5-Thiadiazol-3-Yl)-2,5-Dioxoimidazolidin-4-Yl]Methyl}-4′-(Trifluoromethyl)[Biphenyl]-2-Carboxamide] | 13 |
| Cc1nscc1C1(CNC(=O)c2ccccc2-c2ccc(C(F)(F)F)cc2)NC(=O)NC1=O (stereo not drawn) [Example 86, Ent-N-{[4-(3-Methyl-1,2-Thiazol-4-Yl)-2,5-Dioxoimidazolidin-4-Yl]Methyl}-4′-(Trifluoromethyl)[Biphenyl]-2-Carboxamide] | 7.6 |
| Cc1nn(C)cc1C1(CNC(=O)c2ccccc2-c2ccc(C(F)(F)F)cc2)NC(=O)NC1=O (stereo not drawn) [Example 87, Ent-N-{[4-(1,3-Dimethyl-1H-Pyrazol-4-Yl)-2,5-Dioxoimidazolidin-4-Yl]Methyl}-4′-(Trifluoromethyl)[Biphenyl]-2-Carboxamide] | 6.9 |
| Cc1cnoc1C1(CNC(=O)c2ccccc2-c2ccc(C(F)(F)F)cc2)NC(=O)NC1=O (stereo not drawn) [Example 88, Ent-N-{[4-(4-Methyl-1,2-Oxazol-5-Yl)-2,5-Dioxoimidazolidin-4-Yl]Methyl}-4′-(Trifluoromethyl)[Biphenyl]-2-Carboxamide] | 9.1 |
| O=C1NC(=O)[C@](CNC(=O)c2ccc(C(F)(F)F)cc2-c2ccc(Cl)cc2)(C2CC2)N1 [Example 89, 4′-Chloro-N-{[(4R)-4-Cyclopropyl-2,5-Dioxoimidazolidin-4-Yl]Methyl}-5-(Trifluoromethyl)[1,1′-Biphenyl]-2-Carboxamide] | 7.6 |
| O=C1NC(=O)[C@](CNC(=O)c2cccnc2-c2ccc(Cl)cc2)(C2CC2)N1 [Example 90, 2-(4-Chlorophenyl)-N-{[(4R)-4-Cyclopropyl-2,5-Dioxoimidazolidin-4-Yl]Methyl}Pyridine-3-Carboxamide] | 50 |
| Cc1nsnc1C1(CNC(=O)c2ccccc2-c2ccc(C(F)(F)F)nc2)NC(=O)NC1=O (stereo not drawn) [Example 91, Ent-N-{[4-(4-Methyl-1,2,5-Thiadiazol-3-Yl)-2,5-Dioxoimidazolidin-4-Yl]Methyl}-2-[6-(Trifluoromethyl)Pyridin-3-Yl]Benzamide] | 30 |
| O=C1NC(=O)[C@](CNC(=O)c2ccc(OC(F)(F)F)cc2-c2ccc(C(F)(F)F)cc2)(C2CC2)N1 [Example 92, N-{[(4R)-4-Cyclopropyl-2,5-Dioxoimidazolidin-4-Yl]Methyl}-5-(Trifluoromethoxy)-4′-(Trifluoromethyl)[1,1′-Biphenyl]-2-Carboxamide] | 19 |
| O=C1NC(=O)[C@](CNC(=O)c2ccc(Cl)c(F)c2-c2ccc(C(F)(F)F)cc2)(C2CC2)N1 [Example 93, 5-Chloro-N-{[(4R)-4-Cyclopropyl-2,5-Dioxoimidazolidin-4-Yl]Methyl}-6-Fluoro-4′-(Trifluoromethyl)[1,1′-Biphenyl]-2-Carboxamide] | 3.4 |
